Assay [1] addresses Human KDR (residues 790-1356) (Homo sapiens (Human), UniProt P35968). Put plainly: Human KDR kinase assay, HTRF KinEase (Example B-2). The class given is biochemical. A digest of the protocol:
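Ten compound concentrations (3% DMSO final) were pre-plated, then KDR (790-1356) with biotinylated peptide in Mg/Mn/DTT buffer was added; ATP at Km (4.0 μM) started a 40 min room-temperature reaction. Detection used Eu-TK antibody and SA-XL665 in EDTA buffer; activity normalized to DMSO and reference inhibitor, IC50 by logistic fit.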

In assay [2] the target is Human MER (residues 528-999) (Homo sapiens (Human), UniProt Q12866). The assay can be described thus: Human Mer kinase assay, HTRF KinEase (Example C-2). The format is biochemical. A digest of the protocol: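 HTRF KinEase TK assay with MER 528-999 (1 ng/well) in enzymatic buffer plus 5 mM MgCl2 and 1 mM DTT, biotinylated peptide substrate and ATP at Km (40 μM), 3% DMSO final, 60 min at room temperature. Stopped with EDTA detection mix (SA-XL665, TK antibody-Eu3+), read at 665/620 nm after 60 min; IC50 from 10-point 4-parameter fit, normalized to DMSO and 1 μM reference.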
Background: TR-FRET usually uses a lanthanide donor and a delayed reading to cut background.

Assay [3] addresses KDR (phospho-KDR, VEGF165-stimulated HUVEC cells) (Homo sapiens (Human), UniProt P35968). The assay can be described thus: KDR autophosphorylation ELISA in HUVEC cells (Example G). The class given is cell-based. The settings on record: cellular activity; KDR autophosphorylation ELISA in HUVEC cells. A digest of the protocol: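 Read-out is phospho-KDR measured by ELISA in lysates of VEGF165-stimulated (100 ng/mL, 5 min) HUVEC that were serum-starved 24 h and then pre-exposed 1 h to compound across 8 doses in 0.3% DMSO. Unstimulated lysates defined 0% and stimulated vehicle lysates 100% activity; IC50 values come from 4-parameter logistic regression.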

The target of assay [4] is Mer (phospho-Mer, MERTK-transfected 293A cells) (Homo sapiens (Human), UniProt Q12866). The assay can be described thus: Mer autophosphorylation ELISA in transient transfected 293A cells (Example H). The class given is cell-based. To be noted: cellular activity; Mer autophosphorylation ELISA in transient transfected 293A cells. A digest of the protocol:
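MERTK-transfected 293A; 8-pt dose, 1 h, serum-free, 0.3% DMSO. Cold lysis with orthovanadate and protease/phosphatase inhibitors. Phospho-Mer by DuoSet IC ELISA vs phospho-Mer standard. IC50: 4-PL fit; DMSO = 100%, reference inhibitor = 0%.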

Where [5] appears, read: protocol of Example B-2 (other compounds).
Setting [6] is: protocol of Example C-2 (other compounds).

Some results are limits rather than exact numbers.

What is called IC50 is the concentration at which inhibition is half-maximal.

KDR (phospho-KDR, VEGF165-stimulated HUVEC cells), sequence (P35968 20-1356): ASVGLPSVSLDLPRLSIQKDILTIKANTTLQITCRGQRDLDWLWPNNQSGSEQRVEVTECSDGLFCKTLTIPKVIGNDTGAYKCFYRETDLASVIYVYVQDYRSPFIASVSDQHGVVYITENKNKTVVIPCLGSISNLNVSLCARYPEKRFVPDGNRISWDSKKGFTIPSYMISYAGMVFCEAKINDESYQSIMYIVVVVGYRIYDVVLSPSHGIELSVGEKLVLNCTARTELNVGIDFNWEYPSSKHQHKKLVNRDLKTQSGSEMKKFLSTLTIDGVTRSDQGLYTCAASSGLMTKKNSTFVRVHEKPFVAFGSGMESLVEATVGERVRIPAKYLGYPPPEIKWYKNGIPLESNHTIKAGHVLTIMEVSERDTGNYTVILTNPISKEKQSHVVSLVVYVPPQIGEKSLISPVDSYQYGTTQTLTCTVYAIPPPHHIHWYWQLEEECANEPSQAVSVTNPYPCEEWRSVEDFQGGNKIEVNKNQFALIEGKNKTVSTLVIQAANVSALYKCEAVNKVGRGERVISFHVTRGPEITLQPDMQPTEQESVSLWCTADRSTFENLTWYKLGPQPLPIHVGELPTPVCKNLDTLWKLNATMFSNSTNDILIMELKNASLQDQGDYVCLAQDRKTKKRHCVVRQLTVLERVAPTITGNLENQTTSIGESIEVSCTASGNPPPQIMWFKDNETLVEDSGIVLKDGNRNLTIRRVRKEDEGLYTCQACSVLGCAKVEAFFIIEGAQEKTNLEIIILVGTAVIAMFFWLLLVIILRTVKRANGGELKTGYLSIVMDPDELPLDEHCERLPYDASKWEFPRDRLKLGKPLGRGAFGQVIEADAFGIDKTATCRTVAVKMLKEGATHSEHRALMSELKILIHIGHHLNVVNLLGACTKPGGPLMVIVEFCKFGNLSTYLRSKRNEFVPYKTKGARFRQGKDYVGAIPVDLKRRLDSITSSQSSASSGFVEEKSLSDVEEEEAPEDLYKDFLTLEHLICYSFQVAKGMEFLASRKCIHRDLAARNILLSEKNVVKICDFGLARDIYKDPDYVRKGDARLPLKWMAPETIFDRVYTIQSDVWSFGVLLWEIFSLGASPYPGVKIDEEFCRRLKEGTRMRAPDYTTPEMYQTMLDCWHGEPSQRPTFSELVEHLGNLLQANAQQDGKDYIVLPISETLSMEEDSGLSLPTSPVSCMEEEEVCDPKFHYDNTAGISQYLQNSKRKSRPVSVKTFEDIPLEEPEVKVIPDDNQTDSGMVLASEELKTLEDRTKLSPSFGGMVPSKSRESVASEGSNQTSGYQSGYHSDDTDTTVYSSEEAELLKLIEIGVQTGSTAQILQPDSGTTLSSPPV
Mer (phospho-Mer, MERTK-transfected 293A cells), sequence (Q12866 21-999): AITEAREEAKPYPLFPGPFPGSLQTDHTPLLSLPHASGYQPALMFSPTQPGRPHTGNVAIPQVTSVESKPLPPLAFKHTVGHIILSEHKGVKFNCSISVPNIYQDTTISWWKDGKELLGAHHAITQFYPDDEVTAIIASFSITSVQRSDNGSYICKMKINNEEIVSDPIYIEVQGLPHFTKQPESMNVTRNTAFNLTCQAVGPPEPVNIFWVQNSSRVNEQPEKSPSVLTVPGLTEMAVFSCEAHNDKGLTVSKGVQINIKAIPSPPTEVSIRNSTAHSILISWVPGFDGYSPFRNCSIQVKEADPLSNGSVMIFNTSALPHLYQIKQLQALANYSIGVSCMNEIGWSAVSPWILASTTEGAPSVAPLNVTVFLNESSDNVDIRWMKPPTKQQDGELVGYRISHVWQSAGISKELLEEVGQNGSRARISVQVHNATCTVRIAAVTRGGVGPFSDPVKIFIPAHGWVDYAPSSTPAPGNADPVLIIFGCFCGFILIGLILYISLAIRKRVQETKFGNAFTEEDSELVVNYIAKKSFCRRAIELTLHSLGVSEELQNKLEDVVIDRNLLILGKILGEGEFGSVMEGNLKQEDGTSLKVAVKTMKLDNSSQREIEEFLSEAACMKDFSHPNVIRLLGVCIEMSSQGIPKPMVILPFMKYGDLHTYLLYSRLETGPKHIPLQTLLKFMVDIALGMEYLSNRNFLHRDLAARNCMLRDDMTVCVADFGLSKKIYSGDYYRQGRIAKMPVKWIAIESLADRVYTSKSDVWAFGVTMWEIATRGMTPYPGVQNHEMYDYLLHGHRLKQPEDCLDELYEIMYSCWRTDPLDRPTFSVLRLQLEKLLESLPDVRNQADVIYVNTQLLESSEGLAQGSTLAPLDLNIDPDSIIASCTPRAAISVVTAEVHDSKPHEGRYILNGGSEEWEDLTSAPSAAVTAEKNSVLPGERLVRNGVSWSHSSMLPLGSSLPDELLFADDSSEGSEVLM
Human MER (residues 528-999), sequence (Q12866 528-999): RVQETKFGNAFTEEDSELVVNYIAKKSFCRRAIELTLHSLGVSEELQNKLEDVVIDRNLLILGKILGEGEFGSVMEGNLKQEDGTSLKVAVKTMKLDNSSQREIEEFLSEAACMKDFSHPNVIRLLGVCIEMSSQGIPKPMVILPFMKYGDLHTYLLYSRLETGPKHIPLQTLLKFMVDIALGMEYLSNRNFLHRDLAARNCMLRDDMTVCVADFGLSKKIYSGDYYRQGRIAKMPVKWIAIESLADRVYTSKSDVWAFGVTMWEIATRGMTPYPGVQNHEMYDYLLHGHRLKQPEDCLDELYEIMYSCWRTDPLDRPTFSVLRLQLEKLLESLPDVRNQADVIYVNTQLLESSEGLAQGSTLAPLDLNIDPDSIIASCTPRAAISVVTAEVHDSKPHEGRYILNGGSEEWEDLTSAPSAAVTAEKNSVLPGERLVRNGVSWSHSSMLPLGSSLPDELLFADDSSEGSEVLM
Human KDR (residues 790-1356), sequence (P35968 790-1356): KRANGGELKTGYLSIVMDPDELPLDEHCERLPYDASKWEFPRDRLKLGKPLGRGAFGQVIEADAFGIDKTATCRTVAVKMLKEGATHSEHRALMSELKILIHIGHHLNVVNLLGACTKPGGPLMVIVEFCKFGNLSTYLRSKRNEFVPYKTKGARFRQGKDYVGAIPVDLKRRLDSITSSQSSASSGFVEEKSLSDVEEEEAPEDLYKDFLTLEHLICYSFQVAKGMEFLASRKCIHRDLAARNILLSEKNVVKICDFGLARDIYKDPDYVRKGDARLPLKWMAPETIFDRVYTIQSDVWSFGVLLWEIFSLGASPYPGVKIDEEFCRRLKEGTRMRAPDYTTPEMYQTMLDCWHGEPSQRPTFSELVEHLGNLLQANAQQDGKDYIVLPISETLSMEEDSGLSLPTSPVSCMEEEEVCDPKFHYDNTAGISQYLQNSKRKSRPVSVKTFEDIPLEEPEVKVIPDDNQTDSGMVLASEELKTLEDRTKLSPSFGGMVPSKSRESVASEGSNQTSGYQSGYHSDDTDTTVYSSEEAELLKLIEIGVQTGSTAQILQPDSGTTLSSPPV

For the compound `CCc1nc(C)c(-c2ccc(F)cc2C)c(O)c1C(=O)Nc1ccc(Oc2ccnc3ccc(OC)nc23)cc1` [Compound 526, 2-ethyl-5-(4-fluoro-2-methylphenyl)-4-hydroxy-N-[4-[(6-methoxy-1,5-naphthyridin-4-yl)oxy]phenyl]-6-methylpyridine-3-carboxamide], the IC50 was more than 300 nM in assay [1] (protocol of Example B-2), less than 100 nM in assay [2] (protocol of Example C-2), less than 100 nM in assay [3] and less than 100 nM in assay [4].

For the compound `CCc1ncc(C(=O)Nc2ccc(Oc3ccnc4cc(OC)c(OC)nc34)c(F)c2)c(O)c1-c1ccc(F)cc1` [Compound 504, N-[4-[(6,7-dimethoxy-1,5-naphthyridin-4-yl)oxy]-3-fluorophenyl]-6-ethyl-5-(4-fluorophenyl)-4-hydroxypyridine-3-carboxamide], the concentration for half-maximal inhibition (IC50) in assay [1] (protocol of Example B-2), in assay [2] (protocol of Example C-2), in assay [3] and in assay [4] was less than 100 nM throughout.

As for `CCn1cc(C(=O)Nc2ccc(Oc3ccnc4cc(OC)c(OC)nc34)cc2)c(=O)c(-c2ccc(F)cc2)c1CF` [Compound 558, N-[4-[(6,7-Dimethoxy-1,5-naphthyridin-4-yl)oxy]phenyl]-1-ethyl-6-(fluoromethyl)-5-(4-fluorophenyl)-4-oxopyridine-3-carboxamide], the 50% inhibitory concentration (IC50) in assay [1] (protocol of Example B-2) was more than 300 nM; in assay [2] (protocol of Example C-2), less than 100 nM; in assay [3] it was 100 to 300 nM; in assay [4] it was less than 100 nM.

Regarding `COc1cc2nccc(Oc3ccc(NC(=O)c4ccc(C)n(-c5ccc(F)cc5)c4=O)cc3F)c2nc1OC` [Compound 254, N-[4-[(6,7-Dimethoxy-1,5-naphthyridin-4-yl)oxy]-3-fluorophenyl]-1-(4-fluorophenyl)-6-methyl-2-oxopyridine-3-carboxamide], the half-inhibitory concentration (IC50) in assay [1] (setting [5]), in assay [2] (setting [6]), in assay [3] and in assay [4] was less than 100 nM throughout.

Consider `C=C(C)c1cnc2c(Oc3ccc(NC(=O)c4cnc(C)c(-c5ccc(F)cc5)c4O)cc3)ccnc2c1` [Compound 454, 5-(4-fluorophenyl)-4-hydroxy-6-methyl-N-[4-[(7-prop-1-en-2-yl-1,5-naphthyridin-4-yl)oxy]phenyl]pyridine-3-carboxamide], for which the IC50 in assay [1] (protocol of Example B-2), in assay [2] (protocol of Example C-2), in assay [3] and in assay [4] was less than 100 nM in each case.

On to `C=C(C)c1cnc2c(Oc3ccc(NC(=O)c4cnc(C)c(-c5ccc(F)cc5)c4O)cc3F)ccnc2c1` [Compound 456, 5-(4-fluorophenyl)-N-[3-fluoro-4-[(7-prop-1-en-2-yl-1,5-naphthyridin-4-yl)oxy]phenyl]-4-hydroxy-6-methylpyridine-3-carboxamide], for which the IC50 in assay [1] (protocol of Example B-2), in assay [2] (protocol of Example C-2), in assay [3] and in assay [4] was less than 100 nM each time.

On to `COc1ccc2nccc(Oc3ccc(NC(=O)c4c(C)ncc(-c5ccc(F)cc5C)c4O)cc3F)c2n1` [Compound 480, N-[3-fluoro-4-[(6-methoxy-1,5-naphthyridin-4-yl)oxy]phenyl]-5-(4-fluoro-2-methylphenyl)-4-hydroxy-2-methylpyridine-3-carboxamide], for which the IC50 in assay [1] (protocol of Example B-2) is 100 to 300 nM; in assay [2] (protocol of Example C-2), 100 to 300 nM; in assay [3], less than 100 nM; in assay [4] it was less than 100 nM.

On to `COc1cc2nccc(Oc3ccc(NC(=O)c4cn(C)c(CF)c(-c5ccc(F)cc5C)c4=O)cc3F)c2nc1OC` [Compound 556, N-[4-[(6,7-Dimethoxy-1,5-naphthyridin-4-yl)oxy]-3-fluorophenyl]-6-(fluoromethyl)-5-(4-fluoro-2-methylphenyl)-1-methyl-4-oxopyridine-3-carboxamide], for which the concentration for half-maximal inhibition (IC50) in assay [1] (protocol of Example B-2) is more than 300 nM; in assay [2] (protocol of Example C-2), less than 100 nM; in assay [3], less than 100 nM; in assay [4] it was less than 100 nM.

Turning to `CCc1nc(C)c(-c2ccc(F)cc2)c(O)c1C(=O)Nc1ccc(Oc2ccnc3ccc(OC)nc23)cc1` [Compound 509, 2-ethyl-5-(4-fluorophenyl)-4-hydroxy-N-[4-[(6-methoxy-1,5-naphthyridin-4-yl)oxy]phenyl]-6-methylpyridine-3-carboxamide], the IC50 in assay [1] (protocol of Example B-2), in assay [2] (protocol of Example C-2), in assay [3] and in assay [4] was less than 100 nM throughout.

In the case of `COc1nc2c(Oc3ccc(NC(=O)c4cnc(C)c(-c5ccc(F)cc5C)c4O)cc3F)ccnc2cc1C` [Compound 460, N-[3-fluoro-4-[(6-methoxy-7-methyl-1,5-naphthyridin-4-yl)oxy]phenyl]-5-(4-fluoro-2-methylphenyl)-4-hydroxy-6-methylpyridine-3-carboxamide], the half-maximal inhibitory concentration (IC50) in assay [1] (protocol of Example B-2) is more than 300 nM; in assay [2] (protocol of Example C-2), less than 100 nM; in assay [3], less than 100 nM; in assay [4] it was less than 100 nM.

Take `Cc1nc(C)c(-c2ccc(F)cc2)c(O)c1C(=O)Nc1ccc(Oc2ccnc3cc(O)cnc23)c(F)c1` [Compound 554, N-[3-Fluoro-4-[(7-hydroxy-1,5-naphthyridin-4-yl)oxy]phenyl]-5-(4-fluorophenyl)-4-hydroxy-2,6-dimethylpyridine-3-carboxamide]: the IC50 in assay [1] (protocol of Example B-2), in assay [2] (protocol of Example C-2), in assay [3] and in assay [4] was less than 100 nM in each case.

As for `COCCOc1ccc2nccc(Oc3ccc(NC(=O)c4c(C)nc(C)c(-c5ccc(F)cc5)c4O)cc3F)c2n1` [Compound 349, N-[3-fluoro-4-[[6-(2-methoxyethoxy)-1,5-naphthyridin-4-yl]oxy]phenyl]-5-(4-fluorophenyl)-4-hydroxy-2,6-dimethylpyridine-3-carboxamide], the 50% inhibitory concentration (IC50) in assay [1] (setting [5]), in assay [2] (setting [6]), in assay [3] and in assay [4] was less than 100 nM throughout.

Consider `COc1cc2nccc(Oc3ccc(NC(=O)c4c(C)nc(C)c(-c5ccc(F)cc5)c4O)cc3F)c2nc1OC` [Compound 154, N-[4-[(6,7-Dimethoxy-1,5-naphthyridin-4-yl)oxy]-3-fluorophenyl]-5-(4-fluorophenyl)-4-hydroxy-2,6-dimethylpyridine-3-carboxamide], for which the concentration for half-maximal inhibition (IC50) in assay [1] (setting [5]), in assay [2] (setting [6]), in assay [3] and in assay [4] was less than 100 nM each time.

With `COCCOc1cc2nccc(Oc3ccc(NC(=O)c4c(COC)nc(C)c(-c5ccc(F)cc5)c4O)cc3F)c2nc1OC` [Compound 482, N-[3-fluoro-4-[[6-methoxy-7-(2-methoxyethoxy)-1,5-naphthyridin-4-yl]oxy]phenyl]-5-(4-fluorophenyl)-4-hydroxy-2-(methoxymethyl)-6-methylpyridine-3-carboxamide], the half-inhibitory concentration (IC50) in assay [1] (protocol of Example B-2), in assay [2] (protocol of Example C-2), in assay [3] and in assay [4] was less than 100 nM throughout.

On to `COCCOc1cnc2c(Oc3ccc(NC(=O)c4c(C)nc(C)c(-c5ccc(F)cc5)c4O)cc3F)ccnc2c1` [Compound 555, N-[3-Fluoro-4-[[7-(2-methoxyethoxy)-1,5-naphthyridin-4-yl]oxy]phenyl]-5-(4-fluorophenyl)-4-hydroxy-2,6-dimethylpyridine-3-carboxamide], for which the half-inhibitory concentration (IC50) in assay [1] (protocol of Example B-2), in assay [2] (protocol of Example C-2), in assay [3] and in assay [4] was less than 100 nM each time.

On to `COc1cc2nccc(Oc3ccc(NC(=O)c4cn(C)c(C(=O)O)c(-c5ccc(F)cc5)c4=O)cc3F)c2nc1OC` [Compound 553, 5-[[4-[(6,7-Dimethoxy-1,5-naphthyridin-4-yl)oxy]-3-fluorophenyl]carbamoyl]-3-(4-fluorophenyl)-1-methyl-4-oxopyridine-2-carboxylic acid], for which the IC50 is more than 300 nM in assay [1] (protocol of Example B-2), less than 100 nM in assay [2] (protocol of Example C-2), more than 300 nM in assay [3] and 100 to 300 nM in assay [4].

As for `COc1cc2nccc(Oc3ccc(NC(=O)c4c(C)ncc(-c5ccc(F)cc5C)c4O)cc3F)c2nc1OC` [Compound 479, N-[4-[(6,7-dimethoxy-1,5-naphthyridin-4-yl)oxy]-3-fluorophenyl]-5-(4-fluoro-2-methylphenyl)-4-hydroxy-2-methylpyridine-3-carboxamide], the concentration for half-maximal inhibition (IC50) in assay [1] (protocol of Example B-2), in assay [2] (protocol of Example C-2), in assay [3] and in assay [4] was less than 100 nM each time.

With `COc1cc2ncnc(Oc3ccc(NC(=O)c4c5n(cc(-c6ccc(F)cc6)c4=O)CCC5)cc3F)c2cc1OC` [Compound 406, N-[4-(6,7-dimethoxyquinazolin-4-yl)oxy-3-fluorophenyl]-6-(4-fluorophenyl)-7-oxo-2,3-dihydro-1H-indolizine-8-carboxamide], the IC50 in assay [1] (setting [5]) was more than 300 nM; in assay [2] (setting [6]), less than 100 nM; in assay [3] it was less than 100 nM; in assay [4], less than 100 nM.
